# Measured values reported in US8217024B2, “Conjugated estrogen compositions, applicators, kits, and methods of making and use thereof” (Teva Women's Health, Inc., priority 2005, dated 2012).
# Assay: Spreadability study (125 g load on 2 g product between two petri plates)
# Assay type: physicochemical
# Details: 15 minutes after 125 g load on 2 g of product
# Description: Spreadability studies were also performed for the formulations described in Table 4. Spreadability studies were conducted by applying a 125 g weight load on 2 g of product placed between two petri plates. The weight was placed on the petri plate over the product and the mean diameter of spreading was monitored over 1, 5, and 15 minutes. Based upon the mean spread diameter, the spread area was calculated. See, e.g., De Paula et al., Drug Dev Ind Pharm 24(3): 235-241 (1998). The results for spreadability are indicated in Table 5 for spread area at 15 minutes after the 125 g load was applied.
Compound,% Spread as compared to estimated human vaginal surface area (87.5 cm^2) [%],Spread Area (cm^2)
OCC(O)CO [Glycerin],80.2,70.2
O [Water],89.4,78.2
